Measurements published in patent US12398154B2, “Azaquinazoline pan-KRas inhibitors” (Mirati Therapeutics, Inc., priority 2020, dated 2025).

What was measured:
[1] = molecular target: KRas G12D (Homo sapiens, UniProt P01116, G12D); test: biochemical;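 also: TR-FRET displacement binding assay on KRas, read after a one-hour incubation at room temperature, IC50 fitted from percent-of-control values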
Description: (§1) The ability of a compound to bind to KRas was measured using a TR-FRET displacement assay. […] After a 60-minute incubation at room temperature, the reaction was measured using a BMG LABTECH CLARIO star Plus via TR-FRET. […] The POC values were fit to a 4-parameter IC50 equation and the IC50 value reported.

[2] = molecular target: KRas G12V (Homo sapiens, UniProt P01116, G12V); test: biochemical;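 also: KRas binding measured by TR-FRET displacement at room temperature, IC50 fitted from percent of control values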
Description: as §1

[3] = molecular target: KRas G12R (Homo sapiens, UniProt P01116, G12R); test: biochemical;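 also: TR-FRET displacement assay of compound binding to KRas, read after one hour at room temperature, potency from a four-parameter fit of percent-of-control values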
Description: as §1

[4] = test system: pERK in MKN1 cells; test: Inhibition of KRas phosphorylation of ERK (Cisbio HTRF pERK assay); details: Homo sapiens, MKN-1, 3 h, read-out: Inhibition (HTRF IC50) of KRas-mediated Phosphorylation of ERK, MKN1
[5] = test system: pERK in PSN1 cells; test: as above; details: Homo sapiens, PSN1, 3 h, read-out: Inhibition (HTRF IC50) of KRas-mediated Phosphorylation of ERK, PSN1
[6] = test system: pERK in ASPC1 cells; test: as above; details: Homo sapiens, ASPC1, read-out: Inhibition (HTRF IC50) of KRas-mediated Phosphorylation of ERK, AsPC-1
[7] = test system: pERK in H727 cells; test: as above; details: Homo sapiens, NCI-H727, read-out: Inhibition (HTRF IC50) of KRas-mediated Phosphorylation of ERK, H727

KRas G12R, sequence (P01116 1-169 isoform P01116-2 G12R): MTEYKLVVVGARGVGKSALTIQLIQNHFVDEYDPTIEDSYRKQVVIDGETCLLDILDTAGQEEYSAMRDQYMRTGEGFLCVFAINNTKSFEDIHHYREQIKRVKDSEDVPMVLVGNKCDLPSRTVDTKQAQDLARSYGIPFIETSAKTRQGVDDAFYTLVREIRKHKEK
KRas G12V, sequence (P01116 1-169 isoform P01116-2 G12V): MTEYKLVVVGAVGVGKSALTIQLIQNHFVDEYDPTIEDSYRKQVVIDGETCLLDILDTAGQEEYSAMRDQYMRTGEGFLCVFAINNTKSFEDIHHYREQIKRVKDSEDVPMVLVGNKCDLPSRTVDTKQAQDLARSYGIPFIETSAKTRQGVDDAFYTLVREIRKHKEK
KRas G12D, sequence (P01116 1-169 isoform P01116-2 G12D): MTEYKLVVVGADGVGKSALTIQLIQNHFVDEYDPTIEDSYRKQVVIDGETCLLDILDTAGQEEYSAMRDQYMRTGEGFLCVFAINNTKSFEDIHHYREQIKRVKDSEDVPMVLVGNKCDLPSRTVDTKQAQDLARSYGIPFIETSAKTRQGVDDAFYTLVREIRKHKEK

SMILES | IC50 [1] [µM] | IC50 [2] [µM] | IC50 [3] [µM] | IC50 [4] [µM] | IC50 [5] [µM] | IC50 [6] [µM] | IC50 [7] [µM]
CCc1c(F)ccc2cc(O)cc(-c3ncc4c(N5CCOC6(CCS(=O)(=O)CC6)C5)nc(OC[C@@]56CCCN5C[C@H](F)C6)nc4c3F)c12 [Example 502, 4-(7-(8-ethyl-7-fluoro-3-hydroxynaphthalen-1-yl)-8-fluoro-2-(((2R,7aS)-2-fluorohexahydro-1H-pyrrolizin-7a-yl)methoxy)pyrido[4,3-d]pyrimidin-4-yl)-1-oxa-9-thia-4-azaspiro[5.5]undecane 9,9-dioxide] | 0.638 | 0.457 | 0.607 | 1.94 | ≥ 10 | 2.1 | 6.46
O=C1NCC12CCCN(c1nc(OC[C@@]34CCCN3C[C@H](F)C4)nc3c(F)c(-c4cc(O)cc5ccc(F)c(Cl)c45)ncc13)C2 (stereo partly drawn) [Example 424, 6-(7-(8-chloro-7-fluoro-3-hydroxynaphthalen-1-yl)-8-fluoro-2-(((2R,7aS)-2-fluorohexahydro-1H-pyrrolizin-7a-yl)methoxy)pyrido[4,3-d]pyrimidin-4-yl)-2,6-diazaspiro[3.5]nonan-1-one] | 0.003 | 0.004 | 0.008 | 0.095 | 2.81 | 0.817 | 1.3
O=C1NCC12CCCN(c1nc(OC[C@@]34CCCN3C[C@H](F)C4)nc3c(F)c(-c4cc(O)cc5ccc(F)c(Br)c45)ncc13)C2 (stereo partly drawn) [Example 406, 6-(7-(8-bromo-7-fluoro-3-hydroxynaphthalen-1-yl)-8-fluoro-2-(((2R,7aS)-2-fluorohexahydro-1H-pyrrolizin-7a-yl)methoxy)pyrido[4,3-d]pyrimidin-4-yl)-2,6-diazaspiro[3.5]nonan-1-one] | 0.004 | 0.005 | 0.011 | 0.306 | ≥ 10 | 0.88 | 0.748
CCc1c(F)ccc2cc(O)cc(-c3ncc4c(N5CCCOC(C)(C)C5)nc(OC[C@@]56CCCN5C[C@H](F)C6)nc4c3F)c12 [Example 501, 4-(4-(2,2-dimethyl-1,4-oxazepan-4-yl)-8-fluoro-2-(((2R,7aS)-2-fluorohexahydro-1H-pyrrolizin-7a-yl)methoxy)pyrido[4,3-d]pyrimidin-7-yl)-5-ethyl-6-fluoronaphthalen-2-ol] | 0.606 | 0.169 | 0.176 | 0.225 | ≥ 10 | 2.06 | 3.23
O=C1NC(=O)C2CN(c3nc(OC[C@@]45CCCN4C[C@H](F)C5)nc4c(F)c(-c5cc(O)cc6ccc(F)c(Cl)c56)ncc34)CC12 (stereo partly drawn) [Example 423, 5-(7-(8-chloro-7-fluoro-3-hydroxynaphthalen-1-yl)-8-fluoro-2-(((2R,7aS)-2-fluorohexahydro-1H-pyrrolizin-7a-yl)methoxy)pyrido[4,3-d]pyrimidin-4-yl)tetrahydropyrrolo[3,4-c]pyrrole-1,3(2H,3aH)-dione] | ≤ 0.002 | ≤ 0.002 | ≤ 0.002 | 0.11 | ≥ 10 | 0.556 | 2.22
Nc1cc2n(n1)CCCN(c1nc(OC[C@@]34CCCN3C[C@H](F)C4)nc3c(F)c(-c4cc(O)cc5ccc(F)c(Br)c45)ncc13)C2 [Example 408, 4-(4-(2-amino-7,8-dihydro-4H-pyrazolo[1,5-a][1,4]diazepin-5(6H)-yl)-8-fluoro-2-(((2R,7aS)-2-fluorohexahydro-1H-pyrrolizin-7a-yl)methoxy)pyrido[4,3-d]pyrimidin-7-yl)-5-bromo-6-fluoronaphthalen-2-ol] | ≤ 0.002 | ≤ 0.002 | ≤ 0.002 | 0.351 | ≥ 10 | 0.721 | 0.57
CCc1c(F)ccc2cc(O)cc(-c3ncc4c(N5CCCC6(CC(=O)N6)C5)nc(OCC5(CN(C)C)CC5)nc4c3F)c12 (stereo not drawn) [Example 513, 6-(2-((1-((dimethylamino)methyl)cyclopropyl)methoxy)-7-(8-ethyl-7-fluoro-3-hydroxynaphthalen-1-yl)-8-fluoropyrido[4,3-d]pyrimidin-4-yl)-1,6-diazaspiro[3.5]nonan-2-one] | ≤ 0.002 | ≤ 0.002 | 0.003 | 0.221 | ≥ 10 | 1.31 | 0.869
CCc1c(F)ccc2cc(O)cc(-c3ncc4c(N5CCOC6(CCS(=N)(=O)CC6)C5)nc(OC[C@@]56CCCN5C[C@H](F)C6)nc4c3F)c12 (stereo partly drawn) [Example 503, 4-(7-(8-ethyl-7-fluoro-3-hydroxynaphthalen-1-yl)-8-fluoro-2-(((2R,7aS)-2-fluorohexahydro-1H-pyrrolizin-7a-yl)methoxy)pyrido[4,3-d]pyrimidin-4-yl)-9-imino-1-oxa-9-thia-4-azaspiro[5.5]undecane 9-oxide] | 0.305 | 0.082 | 0.124 | ≥ 10 | ≥ 10 | ≥ 10 | ≥ 10
C#Cc1c(F)ccc2cc(O)cc(-c3ncc4c(N5CCCC6(CNC(=O)N6)C5)nc(OC[C@@]56CCCN5C[C@H](F)C6)nc4c3F)c12 (stereo partly drawn) [Example 395, 7-(7-(8-ethynyl-7-fluoro-3-hydroxynaphthalen-1-yl)-8-fluoro-2-(((2R,7aS)-2-fluorohexahydro-1H-pyrrolizin-7a-yl)methoxy)pyrido[4,3-d]pyrimidin-4-yl)-1,3,7-triazaspiro[4.5]decan-2-one] | ≤ 0.002 | ≤ 0.002 | ≤ 0.002 | 0.299 | ≥ 10 | 0.477 | 1.38
C#Cc1c(F)ccc2cc(O)cc(-c3ncc4c(N5CCCC6(CNS(=O)(=O)N6)C5)nc(OC[C@@]56CCCN5C[C@H](F)C6)nc4c3F)c12 (stereo partly drawn) [Example 396, 7-(7-(8-ethynyl-7-fluoro-3-hydroxynaphthalen-1-yl)-8-fluoro-2-(((2R,7aS)-2-fluorohexahydro-1H-pyrrolizin-7a-yl)methoxy)pyrido[4,3-d]pyrimidin-4-yl)-2-thia-1,3,7-triazaspiro[4.5]decane 2,2-dioxide] | ≤ 0.002 | 0.003 | 0.003 | 0.525 | ≥ 10 | 3.08 | 7.48

The remaining lines, values ahead:

IC50 [1] [µM] | IC50 [2] [µM] | IC50 [3] [µM] | IC50 [4] [µM] | IC50 [5] [µM] | IC50 [6] [µM] | IC50 [7] [µM] | SMILES
0.009 | ≤ 0.002 | 0.003 | 0.781 | ≥ 10 | ≥ 10 | 5.9 | CCc1c(F)ccc2cc(O)cc(-c3ncc4c(NCCC5CNC(=O)N5)nc(OC[C@@]56CCCN5C[C@H](F)C6)nc4c3F)c12 (stereo partly drawn) [Example 382, 4-(2-((7-(8-ethyl-7-fluoro-3-hydroxynaphthalen-1-yl)-8-fluoro-2-(((2R,7aS)-2-fluorohexahydro-1H-pyrrolizin-7a-yl)methoxy)pyrido[4,3-d]pyrimidin-4-yl)amino)ethyl) imidazolidin-2-one]
≤ 0.002 | ≤ 0.002 | ≤ 0.002 | 0.046 | ≥ 10 | 0.948 | 1.27 | CCc1c(F)ccc2cc(O)cc(-c3ncc4c(N5CCCC(NS(N)(=O)=O)C5)nc(OC[C@@]56CCCN5C[C@H](F)C6)nc4c3F)c12 (stereo partly drawn) [Example 352, 7-(8-ethyl-7-fluoro-3-hydroxy-1-naphthyl)-8-fluoro-2-(((2R,7aS)-2-fluorohexahydro-1H-pyrrolizin-7a-yl)methoxy)-4-[3-(sulfamoylamino)-1-piperidyl]pyrido[4,3-d]pyrimidine]
≤ 0.002 | 0.003 | 0.012 | 2.3 | ≥ 10 | ≥ 10 | 7.78 | CCc1c(F)ccc2cc(O)cc(-c3ncc4c(NCCC5CCC(=O)N5)nc(OC[C@@]56CCCN5C[C@H](F)C6)nc4c3F)c12 (stereo partly drawn) [Example 377, 5-(2-((7-(8-ethyl-7-fluoro-3-hydroxynaphthalen-1-yl)-8-fluoro-2-(((2R,7aS)-2-fluorotetrahydro-1H-pyrrolizin-7a(5H)-yl)methoxy)pyrido[4,3-d]pyrimidin-4-yl)amino)ethyl)pyrrolidin-2-one]
0.005 | 0.003 | 0.004 | 0.294 | ≥ 10 | 1.34 | 0.471 | CCc1c(F)ccc2cc(O)cc(-c3ncc4c(NCC5NC(=O)NC5=O)nc(OC[C@@]56CCCN5C[C@H](F)C6)nc4c3F)c12 (stereo partly drawn) [Example 369, 5-(((7-(8-ethyl-7-fluoro-3-hydroxynaphthalen-1-yl)-8-fluoro-2-(((2R,7aS)-2-fluorohexahydro-1H-pyrrolizin-7a-yl)methoxy)pyrido[4,3-d]pyrimidin-4-yl)amino)methyl)imidazolidine-2,4-dione]
0.004 | 0.024 | 0.011 | 0.191 | ≥ 10 | 4.68 | 0.617 | CCc1c(F)ccc2cc(O)cc(-c3ncc4c(NCC5CCNC5=O)nc(OC[C@@]56CCCN5C[C@H](F)C6)nc4c3F)c12 (stereo partly drawn) [Example 368, 3-(((7-(8-ethyl-7-fluoro-3-hydroxynaphthalen-1-yl)-8-fluoro-2-(((2R,7aS)-2-fluorotetrahydro-1H-pyrrolizin-7a(5H)-yl)methoxy)pyrido[4,3-d]pyrimidin-4-yl)amino)methyl)pyrrolidin-2-one]
